Measurements published in patent US20170100493A1, “RECEPTOR IMAGING SYSTEMS AND RELATED METHODS” (The General Hospital Corporation, priority 2015, published 2017).
Read-outs that look alike come from different tables or passages of the source.

Columns and labels:
D2/D3 receptors [1] = target: T1, D2/D3 receptors (Macaca mulatta, UniProt F7CYH8); conditions: for Peak CBV: putamen ROI, animal M1
Protocol: (§1) Two animals (male rhesus macaques: M1 (8 years) and M2 (6 years)) underwent PET/MR imaging. For each study, the animal was anesthetized, initially with 10 mg/kg ketamine and 0.5 mg/kg xylazene, and maintained with isoflurane (1%, mixed with oxygen) after intubation.
(§2) [^11C]Raclopride was injected using a bolus+infusion protocol. […] Boluses were administered by hand over a duration of 30 seconds, after which infusion at a rate of 0.01 ml/s was started with an automatic pump (Medrad Spectra Solaris). Specific activities at time of injection were 3.7±2.8 mCi/nmol. […] Experiments and repeated administration of pharmacological challenges in all NHPs were separated by at least 2 weeks, so that results were not influenced from prior history. […] Additionally, the D2 antagonist prochlorperazine was injected at doses 0.1 and 0.2 mg/kg in animal M2 to serve as a direct comparison to the agonists, and to investigate whether the temporal relationship between occupancy and function that was reported for the short-acting antagonist raclopride (10) was maintained for an antagonist with much longer duration of action.
(§3) Simultaneous PET and MR data were acquired on a prototype scanner that includes a BrainPET insert and a Tim Trio 3T MR scanner (Siemens AG, Healthcare Sector, Erlangen Germany). A custom-built tight-fitting PET compatible 8-channel NHP receive array (34) together with a vendor-supplied local circularly polarized transmit coil was used for MR imaging.
The phased array enabled 2-fold acceleration with GRAPPA (35) in the anterior-posterior direction. […] To improve fMRI detection power, ferumoxytol (Feraheme, AMAG Pharmaceuticals, Cambridge Mass.) was injected at 10 mg/kg prior to fMRI (36).
(§4) PET and MR data were registered to the Saleem-Logothetis stereotaxic space (38) with an affine transformation (12 degrees of freedom) using a multi-subject MRI template (39), in which standard regions of interest (ROI) were defined based on anatomy. Alignment of the EPI data used an affine transformation plus local distortion fields. After motion-correcting using AFNI software (40), and after spatially smoothing fMRI data with a 2.5 mm Gaussian kernel, statistical analysis was carried out using the general linear model (GLM). The temporal response to the drug injection was modeled with a gamma-variate function, in which the time-to-peak was adjusted to minimize the χ^2/DOF of the GLM fit to the data. […] Additionally, regressors that correspond to translations in three dimensions and were derived from motion correction were used in the GLM analysis. The resulting signal changes were then converted to percentage changes in CBV by standard methods (41).

D2/D3 receptors [2] = target: T1, D2/D3 receptors; conditions: for DBPND^peak / Peak Occ. θ^peak / BP^(0): putamen ROI, animal M1; for BP^(0): baseline [11C]raclopride binding potential
Protocol: as §1, §2, §3
PET emission data were acquired in list-mode format for 100 min starting with radiotracer injection. Images were reconstructed with a 3D Poisson ordered-subset expectation maximization algorithm using prompt and variance-reduced random coincidence events. Normalization, scatter and attenuation sinograms (including attenuation of the radiofrequency coil) were included in the reconstruction (37). […] Framing intervals were 10×30 sec, followed by 1 min frames.
as §4
PET kinetic modeling employed a general linear model formulation of the simplified reference tissue model (SRTM) (14), with cerebellum as the reference ROI, and the rate constant (k2) for cerebellum derived from the high-binding region putamen using a 2-parameter SRTM model (42).

D2/D3 receptors [3] = target: T1, D2/D3 receptors; conditions: mean±std over doses; model fit to experimental data
Protocol: The process of receptor desensitization and internalization can be considered in a dynamic occupancy model. In an example of a dynamic occupancy model, the following are assumed: • i. The externalization constant kext is very long, and is thus negligible for timescales <2 h. • ii. Once internalized, receptors can be bound with an affinity α by the PET radiotracer. […] The rate to convert desensitized to internalized receptors is negligible with respect to the relevant experimental timescales.
The concentrations of the free ligand and free DA can both be normalized to the baseline DA occupancy at time zero, such that f describes the fraction of free concentration (relative to baseline DA). The parameter θint describes the fraction of internalized receptors and kDI denotes the desensitization and internalization rate constant. The above equations, plus the measurement models for PET and fMRI are a full description of the RDI model employed in this study for simulation and parameter estimation.
The RDI model was used to generate a family of CBV curves for RDI rates in the range of 1 min to 30 min. An estimate of the RDI constant for each dataset was then achieved by minimizing the residual norm between the model and data after drug injection.

D2 = conditions: cited from earlier work
D2/D3 = conditions: reported (ref 19); cited from earlier work
D3 = conditions: cited from earlier work

T1 sequence (F7CYH8 1-443): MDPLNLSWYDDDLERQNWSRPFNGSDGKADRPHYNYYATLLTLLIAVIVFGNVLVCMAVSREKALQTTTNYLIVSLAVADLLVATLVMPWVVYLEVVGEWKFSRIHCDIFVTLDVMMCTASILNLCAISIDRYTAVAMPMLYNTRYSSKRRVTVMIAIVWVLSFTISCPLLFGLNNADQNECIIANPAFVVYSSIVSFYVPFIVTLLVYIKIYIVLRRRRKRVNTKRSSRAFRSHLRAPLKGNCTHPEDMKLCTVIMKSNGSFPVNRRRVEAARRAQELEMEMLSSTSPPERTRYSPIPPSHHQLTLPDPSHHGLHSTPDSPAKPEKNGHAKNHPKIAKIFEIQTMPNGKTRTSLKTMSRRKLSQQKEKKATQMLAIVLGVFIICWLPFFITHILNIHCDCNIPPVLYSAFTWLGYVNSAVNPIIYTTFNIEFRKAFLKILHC

Compound: CN1CCN(CCCN2c3ccccc3Sc3ccc(Cl)cc32)CC1 [prochlorperazine]
- CBV and occupancy timecourses compared (D2/D3 receptors [1]; animal M2, FIG. 4 graph (c)): CBV and occupancy timecourses were matched
- CBV response peak magnitude (D2/D3 receptors [1]; at 88% occupancy, animal M2): 14.4%
- occupancy at CBV peak magnitude (D2/D3 receptors [2]; animal M2): 88%

Compound: CCCN(CCC)CCc1cccc2c1CC(=O)N2 [ropinirole]
- CBV timecourse peak time after the injection (D2/D3 receptors [1]; 0.1 mg/kg, animal M2): 4.0 min
- duration of CBV response in caudate (D2/D3 receptors [1]; 0.1 mg/kg, animal M2): 28.5 min
- CBV timecourse peak time after the injection (D2/D3 receptors [1]; 0.3 mg/kg, animal M2): 3.4 min
- duration of CBV response in caudate (D2/D3 receptors [1]; 0.3 mg/kg, animal M2): 25.0 min
- CBV^peak signal (D2/D3 receptors [1]; animal M2, FIG. 4 comparison of agonists): −8.5%
- Peak CBV (D2/D3 receptors [1]; 0.1 mg/kg): −6.6%
- Peak CBV (D2/D3 receptors [1]; 0.3 mg/kg): −9.7%
- time at which PET occupancy peaked (D2/D3 receptors [2]; animal M2, FIG. 4): 17.8 min
- DBPND^peak (D2/D3 receptors [2]; 0.1 mg/kg): 4.7
- Peak Occ. θ^peak (D2/D3 receptors [2]; 0.1 mg/kg): 7%
- DBPND^peak (D2/D3 receptors [2]; 0.3 mg/kg): 2.9
- Peak Occ. θ^peak (D2/D3 receptors [2]; 0.3 mg/kg): 49%
- BP^(0) (D2/D3 receptors [2]; 0.1 mg/kg session): 5.1
- BP^(0) (D2/D3 receptors [2]; 0.3 mg/kg session): 5.7
- 1/kDI, in vivo desensitization and internalization time constant (D2/D3 receptors [3]): 8.5 ± 2.1 min
- Kd (D2): 970 nM
- potency compared to quinpirole (D2/D3): about seven times less potent
- Kd (D3): 61 nM
